Several values for one entry are separate records, joined by “and”; a condition that tells them apart may be missing. Equal values may be shown once. After the bases stand the sugars from the 5' end (letter, count) and the backbone: PS all phosphorothioate, else s phosphorothioate and o phosphodiester by linkage. Methylation of C is not given here. e = 2'-O-(2-methoxyethyl) (MOE); k = constrained ethyl (cEt); d = 2'-deoxy (DNA)
Target: IRF4
Conditions: ASO

| Sequence | target mRNA inhibition (MM.1R, 1 µM) | target mRNA inhibition (SK-MEL-28, 4 µM) | further results |
| --- | --- | --- | --- |
| TGGTTGGCTGGTCTTT (sugars kdddddddddkekeke, PS) | 31% |  |  |
| AGGAAACCGCTGGCAG (sugars k3 d10 k3, PS) |  | 56% |  |
| TTACACCCAGAAGTAC (sugars k3 d10 k3, PS) |  | 5% |  |
| GCTAAAGGAGTGCAGG (sugars k3 d10 k3, PS) |  | 7% |  |
| GTACACTTTGTACGGG (sugars k3 d10 k3, PS) |  | 64% |  |
| GGCGGACACGCCCGAC (sugars k3 d10 k3, PS) | 7% |  |  |
| CCTAATCTACAACAAA (sugars k3 d10 k3, PS) |  | 15% |  |
| GGTTTATTAGCTTTCT (sugars k3 d10 k3, PS) |  | -1% |  |
| GCATTTTATCATCCGA (sugars kddddddddddkekek, PS) | 21% |  |  |
| TAACAGGCTATCAGGA (sugars k3 d10 k3, PS) |  | 26% |  |
| TAGCATTATCTACCTC (sugars k3 d10 k3, PS) |  | 66% |  |
| TGCAACTGGCTCACTA (sugars k3 d10 k3, PS) |  | 17% |  |
| CATCACTTGGTCAATT (sugars k3 d10 k3, PS) |  | 29% |  |
| ACTCATGGAGGATCAT (sugars k3 d10 k3, PS) |  | 19% |  |
| GTGATGTCAGGTTTTC (sugars k3 d9 k3 e1, PS) | 71% |  | target mRNA inhibition (MM.1R, 0.074 µM): 16%; target mRNA inhibition (MM.1R, 0.222 µM): 41%; target mRNA inhibition (MM.1R, 0.666 µM): 66%; target mRNA inhibition (MM.1R, 2 µM): 85% |
| TAAATGAGTCGGTCAC (sugars k3 d10 k3, PS) |  | 76% and 65% |  |
| TTGAAAGACTAACTGG (sugars k3 d10 k3, PS) |  | 20% |  |
| CTACAAAATGCCTCCA (sugars k3 d10 k3, PS) |  | 42% |  |
| GTACAGGACAGGTAAA (sugars k3 d10 k3, PS) |  | 25% |  |
| TGTAGTATGAGAAACG (sugars kkddddddddddkeke, PS) | 10% |  |  |
| AGCTGTATTTATGCCC (sugars k3 d10 k3, PS) |  | 58% |  |
| ACCATTCAGACAGATG (sugars k3 d10 k3, PS) |  | 30% |  |
| AAGCAGTGATGTCAGG (sugars kkddddddddddkeke, PS) | 74% and 76% and 56% |  | target mRNA inhibition (MM.1R, 0.0625 µM): 8%; target mRNA inhibition (MM.1R, 0.25 µM): 22%; target mRNA inhibition (MM.1R, 4 µM): 87% |
| ATGTGTATTACTCTTA (sugars kkdddddddddkekek, PS) | 54% and 49% |  |  |
| TGGCATGCGAATGTGC (sugars k3 d10 k3, PS) | -21% |  |  |
| GTTATCTATGGAAACC (sugars k3 d10 k3, PS) |  | 42% |  |

| Sequence | target mRNA inhibition (MM.1R, 1 µM) | target mRNA inhibition (SK-MEL-28, 4 µM) | further results |
| --- | --- | --- | --- |
| TCAATGATGGCAGTCT (sugars k3 d10 k3, PS) |  | 54% |  |
| TAACCGGTAGAGTGAG (sugars k3 d10 k3, PS) | 27% |  |  |
| ACTTTTAGAGAGGAGA (sugars e1 k2 d9 k2 e2, PS) | 28% |  |  |
| TCATATGGCTAAACCT (sugars k3 d10 k3, PS) |  | 49% |  |
| GTTGGAGCAGCCATAG (sugars k3 d10 k3, PS) |  | 31% |  |
| TTTGCTTTGGGCACCA (sugars k3 d10 k3, PS) | 24% |  |  |
| ACTTTTAGAGAGGAGA (sugars kdddddddddkekeke, PS) | 17% |  |  |
| TACTGCTTGAGGTTTT (sugars kkdddddddddekeke, PS) | 18% |  |  |
| AGCACTGGCATCGAGA (sugars k3 d10 k3, PS) |  | 59% |  |
| TCAAAAGGTAGTAGAC (sugars k3 d10 k3, PS) |  | 29% |  |
| CCCTTGCTGCAAATCC (sugars k3 d10 k3, PS) | -4% |  |  |
| CCTTAACCAATCCCAA (sugars k3 d10 k3, PS) |  | 43% |  |
| TGTAACTGAGGACTCA (sugars k3 d10 k3, PS) |  | -2% |  |
| CTTTAGTGTCGCCATG (sugars k3 d10 k3, PS) |  | 29% |  |
| GTGATAGCTGAGCTGA (sugars kkdddddddddkekek, PS) | 39% |  |  |
| CGTGTGCTTGCCAAGC (sugars k2 d9 e3 k2, PS) | 60% and 66% |  |  |
| CGCTTGTGGATATACA (sugars k3 d10 k3, PS) | 0% |  |  |
| CTTGCAGCTCTGACAA (sugars k3 d10 k3, PS) |  | 9% |  |
| CAGCAAGTGTCTTCCA (sugars k3 d10 k3, PS) |  | 64% |  |
| GCCAAACAAACAGAGG (sugars k3 d10 k3, PS) |  | 22% |  |
| GAGAGCTACGCAATCT (sugars k3 d10 k3, PS) |  | 57% |  |
| CTGCGAAGCGCGCGCG (sugars k3 d10 k3, PS) | -6% |  |  |
| CTAAAGTCCCATCGAA (sugars k3 d10 k3, PS) | -2% |  |  |
| AAGCATTTTATCATCC (sugars k3 d9 k3 e1, PS) | 33% |  |  |
| GACAGTGACTTGCATC (sugars k3 d10 k3, PS) | 24% |  |  |
| AGTGCCCAAGCCTTGA (sugars k3 d10 k3, PS) |  | 48% |  |

Reference: the OligoGym collection
